Test results from article PMC4817029, “Molecular characterization of a family 5 glycoside hydrolase suggests an induced-fit enzymatic mechanism” (Scientific Reports, 2016).

How the values were obtained:
BlCel5B [1] = molecular target: T1, BlCel5B (Bacillus licheniformis, UniProt Q65JI7); test: MALDI/TOF-MS product profile; format: biochemical; settings: 1.0 mM cellopentaose, 10 mM ammonium bicarbonate pH 7.0, 50 C, 90 min
T1 construct: gene celC; full-length trimodular enzyme (CD, Ig-like, CBM46) without signal peptide (nucleotides 1-81 removed; gene end nt 1683); E. coli Rosetta2 (DE3), pETTRXA-1a/LIC; His6 tag cut by TEV; monomer

BlCel5B [2] = molecular target: T1, BlCel5B; test: X-ray crystal structure ([…] A) after soaking with cellopentaose; format: binding; settings: crystal soaked with five times molar excess of cellopentaose for 24 h; cellotetraose from cleavage in the crystal; subsites -1 to -3 of the catalytic domain

T1 sequence (Q65JI7 entry or part of it): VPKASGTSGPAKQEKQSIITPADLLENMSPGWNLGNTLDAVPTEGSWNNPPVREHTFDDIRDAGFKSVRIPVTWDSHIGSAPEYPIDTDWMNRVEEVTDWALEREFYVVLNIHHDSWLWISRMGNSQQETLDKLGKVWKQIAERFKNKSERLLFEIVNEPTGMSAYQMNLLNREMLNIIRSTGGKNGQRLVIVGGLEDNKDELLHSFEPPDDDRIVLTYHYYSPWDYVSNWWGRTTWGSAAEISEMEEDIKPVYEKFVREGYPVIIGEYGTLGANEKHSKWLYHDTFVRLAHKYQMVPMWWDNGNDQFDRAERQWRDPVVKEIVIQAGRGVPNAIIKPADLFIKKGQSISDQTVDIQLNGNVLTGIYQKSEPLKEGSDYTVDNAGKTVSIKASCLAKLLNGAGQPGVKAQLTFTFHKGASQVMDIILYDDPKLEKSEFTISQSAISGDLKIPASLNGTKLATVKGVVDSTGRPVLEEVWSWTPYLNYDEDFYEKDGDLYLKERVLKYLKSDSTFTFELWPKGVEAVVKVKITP

| Structure (SMILES) | MALDI/TOF-MS product profile (BlCel5B [1]) | X-ray crystal structure (1.75 A) after soaking with cellopentaose (BlCel5B [2]) |
| --- | --- | --- |
| OC[C@H]1O[C@@H](O[C@H]2[C@H](O)[C@@H](O)[C@H](O[C@H]3[C@H](O)[C@@H](O)[C@H](O[C@H]4[C@H](O)[C@@H](O)[C@H](O[C@H]5[C@H](O)[C@@H](O)C(O)O[C@@H]5CO)O[C@@H]4CO)O[C@@H]3CO)O[C@@H]2CO)[C@H](O)[C@@H](O)[C@@H]1O (some centres unmarked) [C5, cellopentaose] | ability of BlCel5B to cleave C5 into glucose and C4 molecules in solution was demonstrated | – |
| OC[C@H]1O[C@@H](O[C@H]2[C@H](O)[C@@H](O)[C@H](O[C@H]3[C@H](O)[C@@H](O)[C@H](O[C@H]4[C@H](O)[C@@H](O)C(O)O[C@@H]4CO)O[C@@H]3CO)O[C@@H]2CO)[C@H](O)[C@@H](O)[C@@H]1O (some centres unmarked) [C4, cellotetraose] | – | Electron density maps clearly reveal the presence of a cellotetraose (C4) |
